# Test results taken from patent US9593149B2, “Amylin and calcitonin receptor agonist” (Novo Nordisk A/S, priority 2014, dated 2017).
# Peptide text beside a SMILES is read from it. * marks the point of attachment. C18 diacid = O=C(O)CCCCCCCCCCCCCCCCC(=O)*
# Legend:
# [1] = target: T1, human calcitonin (a) receptor, BHK570 cells (Homo sapiens, UniProt P30988); experiment: Assay (II)b functional CRE-luciferase assay without albumin, human calcitonin receptor; format: cell-based; conditions: Tested without HSA; read-out: hCTR funct. EC50
# T1 construct: host or cells: BHK570
# T1 sequence (P30988 25-474): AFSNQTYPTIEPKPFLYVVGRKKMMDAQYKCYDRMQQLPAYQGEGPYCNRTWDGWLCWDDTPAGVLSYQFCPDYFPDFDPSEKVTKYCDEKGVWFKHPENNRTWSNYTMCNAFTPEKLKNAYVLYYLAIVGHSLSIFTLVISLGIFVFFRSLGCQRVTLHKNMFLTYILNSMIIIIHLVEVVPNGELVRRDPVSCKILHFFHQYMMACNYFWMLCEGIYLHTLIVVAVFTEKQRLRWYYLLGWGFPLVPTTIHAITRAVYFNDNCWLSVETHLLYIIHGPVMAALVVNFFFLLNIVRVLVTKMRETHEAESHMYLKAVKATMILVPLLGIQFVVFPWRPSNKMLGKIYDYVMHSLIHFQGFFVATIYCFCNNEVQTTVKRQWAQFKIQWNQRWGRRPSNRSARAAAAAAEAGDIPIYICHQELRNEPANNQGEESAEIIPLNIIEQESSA
# Description: (§1) Assay(II)b—Human Calcitonin and Amylin Receptor Assay without Albumin
# (§2) 1. Luciferase Assay Outline
# (§3) Activation of calcitonin and amylin (co-expression of calcitonin receptor and receptor activity modifying proteins (RAMP)) receptors lead to increased intracellular concentrations of cAMP. Consequently, transcription is activated by promoters containing multiple copies of the cAMP response element (CRE). It is thus possible to measure amylin activity by the use of a CRE luciferase reporter gene introduced into BHK cells also expressing calcitonin or amylin receptors.
# (§4) 2. Construction of Calcitonin (a)—and Amylin 3(a)—Receptor/CRE-Luc Cell Line.
# (§5) A BHK570 cell line was stably transfected with the human calcitonin receptor and a CRE-responsive luciferase reporter gene (Hollex-1 cell line, obtained from ZymoGenetics described in U.S. Pat. No. 5,622,839). The cell line was further transfected with RAMP-3, using standard methods. This turns the calcitonin receptor into an amylin 3(a) receptor. Methotrexate, Neomycin, and Hygromycin are selection markers for luciferase, the calcitonin receptor, and RAMP-3, respectively. To prepare the batches of frozen cells used in the luciferase assay described in the section below, the cells were cultured in growth medium (DMEM with 10% FBS, 1% Pen/Strep and 1 mM Napyruvate). […] Cells at approximately 80-90% confluence were washed with PBS and loosened from the plates with Versene. After centrifugation (2 min, 1300 rpm, in a Centrion Scientific centriuge C2 series with a BRK 5510 rotor head), the cell pellet was dissolved in 10% DMSO, 30% FBS and 60% growth medium and frozen (−80° C.) until utilization.
# (§6) The day before the experiment, BHK calcitonin (a) receptor- or amylin 3(a)-receptor/CRE-luc cells were thawed, washed twice, and seeded in 40 μl growth medium on white 384 well culture plates (4.000 cells/well). On the assay day, the cells were washed 3 times in assay media (Dulbecco media W/o phenol red, 500 ml (Gibco, 11880-028); 0.1% ovalbumin; 10 mM Hepes pH 7.4; 1× Glutamin; 1% Pen/Strep). Then, 30 μl/well of sample diluted in assay buffer was added. After 3 hours of incubation at 37° C. and 5% CO2, the reaction was terminated by adding 30 μl/well SteadyLite Plus™. The plates were shaken at 300 rpm for 5 min at RT. Then, the plates were sealed and incubated at room temperature for 30 minutes. Finally, luminescence was tested on a TopCounter (Packard) in SPC (single photon counting) mode.
# (§7) Additional Comment Regarding Use of Data Retrieved Via this Method
# (§8) For the same reasons, measurements made in Assay IIa should not be compared in Assay IIb.
# [2] = target: T2, human amylin 3(a) receptor (human calcitonin receptor + RAMP-3), BHK570 cells (Homo sapiens, UniProt O60896+P30988); experiment: Assay (II)b functional CRE-luciferase assay without albumin, human amylin receptor; format: cell-based; conditions: Tested without HSA; read-out: hAmylin-R funct. EC50
# T2 construct: host or cells: BHK570
# T2 sequence (O60896 24-148, one chain of several): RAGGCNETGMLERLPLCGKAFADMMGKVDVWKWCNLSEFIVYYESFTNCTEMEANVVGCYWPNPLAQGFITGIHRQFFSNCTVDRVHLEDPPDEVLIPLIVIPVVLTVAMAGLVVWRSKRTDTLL
# Description: as §1, §2, §3, §4, §5, §6, §7, §8
# [3] = Assay (IV) determination of solubility; format: physicochemical
# Procedure: Assay (IV)—Determination of Solubility
# The mimylin peptide was dissolved in water at ˜500 nmol/ml and mixed 1:1 with a series of buffers (100 mM glycylglycine pH 3.0, 100 mM glycylglycine pH 4.0, 100 mM glycylglycine pH 5.0, 100 mM bistrispropane pH 6.0, 100 mM bistrispropane pH 6.5, 100 mM bistrispropane pH 7.0, 100 mM bistrispropane pH 7.5, 100 mM bistrispropane pH 8.0).
# [4] = target: T3, human amylin receptor (human calcitonin receptor + human RAMP3), BHK tk'ts 13 cells (Homo sapiens, UniProt O60896+P30988); experiment: Assay (Va) binding to the human amylin receptor (whole cell); conditions: read-out: hAmylin-R binding IC50
# T3 construct: expressed in transfected cells; host or cells: BHK tk'ts 13
# T3 sequence (O60896 24-148, one chain of several): as above
# Procedure: The day before the assay the cells were Seeded into Poly-D-Lysin coated 384W Opaque White, BD BioCoat plates (10000 cells/well) and Incubated overnight at 37° C., 5% CO2, 95% humidity.
# [5] = Assay (XV) subcutaneous PK in LYD-pigs, co-formulated or co-dosed with liraglutide; format: in vivo; conditions: administered as co-formulations to LYD pigs
# Procedure: The studies were performed in female LYD pigs of SPF origin delivered from Lars Jonson, Hillerødvej 70, Lynge.
# Before the animals arrived, the animal rooms and pens were cleaned and disinfected with Virkon S. During the study, the animal rooms were cleaned and washed regularly.
# The pigs were group housed during the acclimatisation period. The pigs were fitted with a central venous catheter while under anaesthesia and after the single housed after catheterization in pens ≧3.1 m^2 with straw as bedding. The temperature in the rooms was set at 20−23° C. and the relative humidity to 30-70%. The rooms were illuminated to give a cycle of 12 hours light and 12 hours darkness. Light was on from 07.00 to 19.00 h.
# The formulations was prepared similarly and filled in cartridges in all cases.
# The animals were dosed subcutaneously as follows.
# The s.c. dosing was performed in 4 mm depth, in a site of injection which was secured on beforehand by ultrasound to avoid muscular tissue or heavy vascularization. Dosing was made using NovoPen®4 and needle Novofine 28 G and a needle stopper to ensure 4 mm depth of injection. The needle was kept in the subcutis for 10 seconds after the injection to secure deposition of compound. […] The co-formulation was administered as one injection. Study was performed as a cross over study with adequate wash out between dosings.
# Blood was sampled at predefined time points for up till 15 days post dosing to adequately cover the full plasma concentration-time profile of the mimylin derivative. Blood samples were drawn from a central venous catheter to jugularis made through the catheter which was afterwards flushed with 10 ml 0.9% NaCl.
# For each blood sampling time point approximately 0.8 mL of whole blood was collected in a 1.5 mL EDTA coated tube, and the tube was gently turned to allowing mixing of the sample with the anticoagulant. Blood samples (for example 0.8 mL) were collected in EDTA buffer (8 mM) and then centrifuged at 4° C. and 2000 G for 10 minutes. Plasma was pipetted into Micronic tubes on dry ice, and kept at −20° C. until analysis.
# Individual plasma concentration-time profiles were analysed by a non-compartmental model in Phoenix WinNonlin version 6.3 (Pharsight Inc., Mountain View, Calif., USA).
# The area under the plasma concentration versus time curve (AUC, [time×concentration]) was calculated (by the Pharsight programme) after subcutaneous administration, typically until 240-288 hours post dosing, or until last measured concentration. The AUC was calculated and given as AUCinf-pred and dose normalized.
# Results of co-formulation studies in LYD-pigs are summarized below
SMILES,EC50 [1],EC50 [2],"solubility at 18 h ([3]; bistrispropane buffer, pH 6.5)","solubility at 18 h ([3]; bistrispropane buffer, pH 7.5)","solubility at 18 h ([3]; bistrispropane buffer, pH 6.0)","solubility at 18 h ([3]; bistrispropane buffer, pH 7.0)","solubility at 18 h ([3]; bistrispropane buffer, pH 8.0)","solubility at 18 h ([3]; glycylglycine buffer, pH 3.0)","solubility at 18 h ([3]; glycylglycine buffer, pH 4.0)","solubility at 18 h ([3]; glycylglycine buffer, pH 5.0)",IC50 [4],effect on PK profile of the co-formulated peptide [5]
"CC[C@H](C)[C@H](NC(=O)[C@@H](NC(=O)[C@H](C)NC(=O)[C@@H](NC(=O)[C@H](CO)NC(=O)[C@H](CC(C)C)NC(=O)[C@H](CCC(=O)O)NC(=O)[C@H](CO)NC(=O)[C@H](C)NC(=O)[C@H](CCC(=O)O)NC(=O)CCCCCCCCCCCCCCCCC(=O)O)[C@@H](C)O)C(C)C)C(=O)NCC(=O)N[C@@H](CCCNC(=N)N)C(=O)N[C@@H](CC(C)C)C(=O)N[C@@H](CO)C(=O)N[C@@H](C)C(=O)N[C@@H](CCC(=O)O)C(=O)N[C@@H](CC(C)C)C(=O)N[C@@H](Cc1c[nH]cn1)C(=O)N[C@@H](CCC(=O)O)C(=O)N[C@@H](CC(C)C)C(=O)N[C@@H](C)C(=O)N[C@H](C(=O)N[C@@H](CC(C)C)C(=O)N1CCC[C@H]1C(=O)N[C@@H](CCCNC(=N)N)C(=O)N[C@H](C(=O)N[C@@H](CCC(=O)O)C(=O)N[C@H](C(=O)NCC(=O)N1CCC[C@H]1C(=O)N[C@@H](CCC(=O)O)C(=O)N[C@@H](CO)C(=O)N1CCC[C@H]1C(N)=O)[C@@H](C)O)[C@@H](C)O)[C@@H](C)O [compound 26, [N-terminal(C18 diacid), 9V, 10I]mimylin] ({C18 diacid}-EASELSTAVIGRLSAELHELATLPRTETGPESP-NH2)",6 pM,0.007 nM,≥ 200 µM,≥ 200 µM,≥ 200 µM,≥ 200 µM,≥ 200 µM,≥ 200 µM,≥ 200 µM,≥ 200 µM,0.891 nM,–
"CC(C)C[C@H](NC(=O)[C@H](CCC(=O)O)NC(=O)[C@H](Cc1c[nH]cn1)NC(=O)[C@H](CC(C)C)NC(=O)[C@H](CCC(=O)O)NC(=O)[C@H](C)NC(=O)[C@H](CO)NC(=O)[C@H](CC(C)C)NC(=O)[C@H](CCCNC(=N)N)NC(=O)CNC(=O)[C@H](CC(C)C)NC(=O)[C@@H](NC(=O)[C@H](C)NC(=O)[C@@H](NC(=O)[C@@H](NC(=O)[C@H](CC(C)C)NC(=O)[C@H](CCC(=O)O)NC(=O)[C@H](CO)NC(=O)[C@H](C)N)[C@@H](C)O)[C@@H](C)O)C(C)C)C(=O)N[C@@H](C)C(=O)N[C@H](C(=O)N[C@@H](CC(C)C)C(=O)N1CCC[C@H]1C(=O)N[C@@H](CCCNC(=N)N)C(=O)N[C@H](C(=O)N[C@@H](CCC(=O)O)C(=O)N[C@H](C(=O)NCC(=O)N[C@H](C(=O)NCC(=O)N[C@H](C(=O)N1CCC[C@H]1C(N)=O)[C@@H](C)O)[C@@H](C)O)[C@@H](C)O)[C@@H](C)O)[C@@H](C)O [95bb, H—ASELTTAVLGRLSAELHELATLPRTETGTGTP—NH2] (H-ASELTTAVLGRLSAELHELATLPRTETGTGTP-NH2)",9 pM,0.046 nM,–,–,–,–,–,–,–,–,20.2 nM,–
"CCCCCCCCCCCCCCCC(=O)N[C@@H](CCC(=O)NCCCC[C@H](NC(=O)[C@H](C)NC(=O)[C@H](C)NC(=O)[C@H](CCC(N)=O)NC(=O)CNC(=O)[C@H](CCC(=O)O)NC(=O)[C@H](CC(C)C)NC(=O)[C@H](Cc1ccc(O)cc1)NC(=O)[C@H](CO)NC(=O)[C@H](CO)NC(=O)[C@@H](NC(=O)[C@H](CC(=O)O)NC(=O)[C@H](CO)NC(=O)[C@@H](NC(=O)[C@H](Cc1ccccc1)NC(=O)[C@@H](NC(=O)CNC(=O)[C@H](CCC(=O)O)NC(=O)[C@H](C)NC(=O)[C@@H](N)Cc1cnc[nH]1)[C@@H](C)O)[C@@H](C)O)C(C)C)C(=O)N[C@@H](CCC(=O)O)C(=O)N[C@@H](Cc1ccccc1)C(=O)N[C@H](C(=O)N[C@@H](C)C(=O)N[C@@H](Cc1c[nH]c2ccccc12)C(=O)N[C@@H](CC(C)C)C(=O)N[C@H](C(=O)N[C@@H](CCCNC(=N)N)C(=O)NCC(=O)N[C@@H](CCCNC(=N)N)C(=O)NCC(=O)O)C(C)C)[C@@H](C)CC)C(=O)O [Liraglutide, N^ε26-[(4S)-4-carboxy-4-(hexadecanoylamino)butanoyl]-[Arg^34]-GLP-1-(7-37)-peptide, reference compound]",–,–,–,–,–,–,–,–,–,–,–,not affect the PK profile of Ex. compound 2 or 46
